Test results reported in patent US10668056B2, “Pharmaceutical composition comprising indole derivatives, process for preparation and use thereof” (VIVOLUX AB, priority 2015, dated 2020).

Key:
[1] = system: HCT116 (Colon carcinoma); experiment: FMCA cytotoxicity, HCT116; type: cell-based, human; conditions: Homo sapiens, HCT-116, 72 h
Protocol: (§1) The inventors also set out to characterize activity of the compounds A, B and C in cell lines representing cancer of different origin. The specific assays used and the conclusions from the mechanistic evaluation have previously been described in detail (Zhang et al. 2014). Compounds A, B and C (See FIG. 4) were evaluated for cytotoxicity expressed as survival index (SI) in six human tumor cell lines using the cell based fluorometric micro culture cytotoxicity assay (FMCA) as previously described in detail (Lindhagen et al, 2008). The method is based on measurement of fluorescent fluorescein, generated from hydrolysis of FDA by viable cells with intact plasma membrane. The fluorescence is proportional to the number of intact viable cells.
(§2) The cell lines were cultivated in the respective cell medium recommended by the provider. The medium was supplemented with 10% heat-inactivated fetal bovine serum, 2 mmol/L L-glutamine, 100 μg/mL streptomycin and 100 U/mL penicillin (all from Sigma-Aldrich). The cell line was cultured at 37° C. in a humidified atmosphere containing 5% CO2.
(§3) FMCA analysis in brief, 2500 cells per well were seeded into 384-well microplates and incubated over night before treatment with compounds. Compounds were added using acoustic liquid transfer (Echo 550, LabCyte). The plates were incubated at 37° C. for 72 h, and then washed and FDA was added to the wells followed by 50 min of incubation at 37° C. The fluorescence, which is proportional to the number of living cells in each well, was measured at 485/520 nm in a Fluoroskan instrument (Labsystems, GMI, Ramsey, Minn.). Cell survival is presented as Survival Index (SI), defined as the fluorescence value in the compound-treated wells analysed as percentage of the value in the control wells, with blank values subtracted. Quality criteria included a signal/blank ratio >10 and a coefficient of variation (CV) in control and blank wells <30%. Graph Pad Prism (San Diego, Calif., USA). All experiments were performed twice, and each concentration was evaluated in quadruplicates in each experiment. […]

[2] = system: RKO (Colon carcinoma); experiment: FMCA cytotoxicity, RKO; type: cell-based, human; conditions: Homo sapiens, 72 h
Protocol: as §1, §2, §3

[3] = system: HeLa (Cervix Adenocarcinoma); experiment: FMCA cytotoxicity, HeLa; type: cell-based, human; conditions: Homo sapiens, 72 h
Protocol: as §1, §2, §3

[4] = system: HepG2 (Hepatocellular Carcinoma); experiment: FMCA cytotoxicity, HepG2; type: cell-based, human; conditions: Homo sapiens, 72 h
Protocol: as §1, §2, §3

[5] = system: CCRF-CEM (Acute lymphoblastic leukemia); experiment: FMCA cytotoxicity, CCRF-CEM; type: cell-based, human; conditions: Homo sapiens, 72 h
Protocol: as §1, §2, §3

[6] = system: THP-1 (Acute Monocytic Leukemia); experiment: FMCA cytotoxicity, THP-1; type: cell-based, human; conditions: Homo sapiens, 72 h
Protocol: as §1, §2, §3

[7] = system: six human tumor cell lines; experiment: FMCA cytotoxicity, six human tumor cell lines (overall); type: cell-based; conditions: Table 6 and FIG. 4
Protocol: as §1, §2, §3

CC/C(=N\Nc1nnc2c(n1)[nH]c1c(C)cccc12)c1ccccn1 [Compound B, 2-[(1E)-1-(2-{6-methyl-5H-[1,2,4]triazino[5,6-b]indole-3-yl}hydrazin-1-ylidene)propyl]pyridine]
IC50 [1]: ~1000 nM
IC50 [2]: < 250 nM
IC50 [3]: ~20000 nM
IC50 [4]: < 250 nM
IC50 [5]: < 250 nM
IC50 [6]: < 250 nM
activity on cancer cell lines [7]: strong activity
